Assay results as given in US9796711B2, “Substituted pyrazolo[3,4-b]pyridin-6-carboxylic acids and method of use” (AbbVie S.àr.l., priority 2015, dated 2017).

Target: T1, ΔF508-CFTR (Homo sapiens, UniProt P13569, DEL508-508)
T1 construct: host or cells: CFBE41o-, doxycycline-inducible
Assay: CFTR cell surface levels using HRP-tagged ΔF508-CFTR expressing CFBE cells, in the presence of a co-corrector
Format: cell-based
Conditions: HRP-tagged ΔF508-CFTR expressing CFBE cells, in the presence of 3 μM co-corrector; for EC50: read-out: EC50
Text: Measuring CFTR Cell Surface Levels Using HRP-Tagged AF508-CFTR Expressing CFBE Cells
The HRP-tagged AF508-CFTR cell assay measures the expression of CFTR-ΔF508 at the plasma membrane. CFTR-ΔF508 has a folding defect leading to absence of protein at the plasma membrane. This assay is used to evaluate the capacity of compounds to increase the expression of CFTR-ΔF508 at the plasma membrane. The CFTR-ΔF508 is tagged with HRP (horse radish peroxidase enzyme) within the ECL4 (Extracellular loop 4) of CFTR (Phuan, P.-W. et al. Synergy-based small-molecule screen using a human lung epithelial cell line yields AF508-CFTR correctors that augment VX-809 maximal efficacy. Mol. Pharmacol. 86, 42-51 (2014)). When HRP-tagged AF508-CFTR is present at the plasma membrane, the HRP enzyme activity can be measured. The amount of CFTR-ΔF508 that can be rescued to the plasma membrane is correlated with the amount of functional enzyme that can be measured.
There are several ways to measure the capacity of compounds to rescue CFTR-ΔF508 to the plasma membrane; either compounds are evaluated on their own and the impact on plasma membrane levels is measured or compounds are evaluated in combination with a co-corrector, i.e. a compound that rescues CFTR-ΔF508 to the plasma membrane but rescue can be enhanced by addition of compounds due to a complementary mode of action.
Activity of Compounds in Combination with Co-Corrector:
For this purpose doxycycline-inducible AF508-CFTR-HRP expressing CFBE4lo-cells (obtained from Gergely Lukacs, McGill University) were maintained in MEM (Minimum Essential Medium, Gibco; 31095) supplemented with 10% fetal bovine serum (Hyclone; SV30160.03) under puromycin (3 μg/mL) and G418 selection (0.2 mg/mL). For compound testing, cells were seeded at 4000 cells/well in white 384-well plates (Greiner; 781080) in 50 μL of medium containing 0.5 μg/mL doxycycline and incubated for 68 hours at 37° C., 5% CO2. On day four, 10 μL of test compounds diluted in PBS (phosphate buffered saline) were added to the plates at a final DMSO concentration of 0.1%. In order to measure compound synergy with a co-corrector, 3 μM co-corrector (3-[(2R,4R)-4-({[1-(2,2-difluoro-1,3-benzodioxol-5-yl)cyclopropyl]carbonyl}amino)-7-methoxy-3,4-dihydro-2H-chromen-2-yl]benzoic acid) was added along with test compounds. All compound plates contained negative controls (DMSO) and positive controls (3 μM co-corrector). Cell plates were incubated at 33° C., 5% CO2 for 20 hours. On day five, the cells were washed five times with phosphate-buffered saline, and HRP activity was assayed by the addition of 50 μL/well of HRP substrate (SuperSignal™ West Pico Chemiluminescent Substrate, Thermo Scientific; 34080). After incubation for 15 minutes in the dark, the chemiluminescence was measured using a plate reader (EnVision®, Perkin Elmer). Raw data were normalized to percentage activity values using the equation: 100×(Sample−Negative control)/(Positive control−Negative Control).

T1 sequence (P13569 with tags, fused parts or gaps DEL508-508): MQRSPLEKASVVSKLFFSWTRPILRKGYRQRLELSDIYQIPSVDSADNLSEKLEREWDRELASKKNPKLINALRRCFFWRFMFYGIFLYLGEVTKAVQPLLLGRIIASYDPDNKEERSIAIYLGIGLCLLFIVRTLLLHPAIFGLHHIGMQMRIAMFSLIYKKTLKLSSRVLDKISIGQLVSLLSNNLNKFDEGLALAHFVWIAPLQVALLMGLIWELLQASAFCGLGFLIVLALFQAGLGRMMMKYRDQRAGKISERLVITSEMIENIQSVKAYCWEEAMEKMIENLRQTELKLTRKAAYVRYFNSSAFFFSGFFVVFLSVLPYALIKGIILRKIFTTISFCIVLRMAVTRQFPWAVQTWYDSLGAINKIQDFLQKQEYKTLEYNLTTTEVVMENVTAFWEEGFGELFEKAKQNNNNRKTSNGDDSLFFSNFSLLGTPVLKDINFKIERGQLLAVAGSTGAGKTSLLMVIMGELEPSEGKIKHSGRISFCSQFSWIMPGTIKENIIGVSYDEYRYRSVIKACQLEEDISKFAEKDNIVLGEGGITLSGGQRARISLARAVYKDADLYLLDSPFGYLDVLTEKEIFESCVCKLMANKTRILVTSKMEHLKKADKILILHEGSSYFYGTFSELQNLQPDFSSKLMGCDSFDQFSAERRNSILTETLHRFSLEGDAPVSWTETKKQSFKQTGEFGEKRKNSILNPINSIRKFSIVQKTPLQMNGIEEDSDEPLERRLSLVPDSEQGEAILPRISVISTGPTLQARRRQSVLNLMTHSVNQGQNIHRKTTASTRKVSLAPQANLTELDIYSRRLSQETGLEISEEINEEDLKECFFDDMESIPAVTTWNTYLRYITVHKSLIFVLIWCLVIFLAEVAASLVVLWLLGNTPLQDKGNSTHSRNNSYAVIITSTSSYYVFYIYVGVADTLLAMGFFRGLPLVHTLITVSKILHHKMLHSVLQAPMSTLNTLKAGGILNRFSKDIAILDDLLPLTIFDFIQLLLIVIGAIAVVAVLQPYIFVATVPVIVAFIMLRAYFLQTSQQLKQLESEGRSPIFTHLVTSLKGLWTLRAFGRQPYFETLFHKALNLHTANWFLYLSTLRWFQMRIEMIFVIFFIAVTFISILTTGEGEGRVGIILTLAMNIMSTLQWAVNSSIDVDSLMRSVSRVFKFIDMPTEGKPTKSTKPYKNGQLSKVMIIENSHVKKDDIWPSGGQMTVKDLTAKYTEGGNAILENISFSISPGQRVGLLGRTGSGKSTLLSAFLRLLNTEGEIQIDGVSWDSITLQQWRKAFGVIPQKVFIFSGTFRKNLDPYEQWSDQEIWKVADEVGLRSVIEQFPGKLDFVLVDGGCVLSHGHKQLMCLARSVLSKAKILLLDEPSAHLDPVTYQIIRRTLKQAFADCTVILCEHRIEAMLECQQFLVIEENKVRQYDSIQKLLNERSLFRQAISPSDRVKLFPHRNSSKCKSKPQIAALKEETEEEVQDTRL

Row | SMILES | % Activation | EC50
1 | CC(C)c1nn(-c2ccc(F)cc2)c2nc(C(=O)O)cc(N3CCC(C)(N4CCN(C)CC4)CC3)c12 [compound 761, 1-(4-fluorophenyl)-4-[4-methyl-4-(4-methylpiperazin-1-yl)piperidin-1-yl]-3-(propan-2-yl)-1H-pyrazolo[3,4-b]pyridine-6-carboxylic acid] | 284% | 1.67 µM
2 | CC(C)c1nn(-c2ccc(F)cc2)c2nc(C(=O)O)cc(N3CCC(N(C)C4COC4)CC3)c12 [compound 751, 1-(4-fluorophenyl)-4-{4-[methyl(oxetan-3-yl)amino]piperidin-1-yl}-3-(propan-2-yl)-1H-pyrazolo[3,4-b]pyridine-6-carboxylic acid] | 400.2% | 1.59 µM
3 | CC(C)c1nn(-c2ccc(F)cc2)c2nc(C(=O)O)cc(OCCCN(C)C)c12 [compound 606, 4-[3-(dimethylamino)propoxy]-1-(4-fluorophenyl)-3-(propan-2-yl)-1H-pyrazolo[3,4-b]pyridine-6-carboxylic acid] | 199.7% | 1.77 µM
4 | N#CCC1(O)CCN(c2cc(C(=O)O)nc3c2c(C2CCC2)nn3-c2ccccc2)CC1 [compound 665, 4-[4-(cyanomethyl)-4-hydroxypiperidin-1-yl]-3-cyclobutyl-1-phenyl-1H-pyrazolo[3,4-b]pyridine-6-carboxylic acid] | 330.43% | 1.86 µM
5 | O=C(O)c1cc(N2CCCN(C3CCCC3)CC2)c2c(C3CCC3)nn(-c3ccccc3)c2n1 [compound 705, 3-cyclobutyl-4-(4-cyclopentyl-1,4-diazepan-1-yl)-1-phenyl-1H-pyrazolo[3,4-b]pyridine-6-carboxylic acid] | 249.8% | 1.67 µM
6 | O=C(O)c1cc(N2CCN3CCC[C@@H]3C2)c2c(C3CCC3)nn(-c3ccccc3)c2n1 [compound 721, 3-cyclobutyl-4-[(8aR)-hexahydropyrrolo[1,2-a]pyrazin-2(1H)-yl]-1-phenyl-1H-pyrazolo[3,4-b]pyridine-6-carboxylic acid] | 302.1% | 0.51 µM
7 | Cc1nn(-c2ccccc2)c2nc(C(=O)O)cc(-c3ccc(N4CCOCC4)nc3)c12 [compound 50, 3-methyl-4-[6-(morpholin-4-yl)pyridin-3-yl]-1-phenyl-1H-pyrazolo[3,4-b]pyridine-6-carboxylic acid] | 313.2% | 2.12 µM
8 | CC(C)c1nn(-c2ccc(F)cc2)c2nc(C(=O)O)cc(N3CCC(N4CCOCC4)CC3)c12 [compound 756, 1-(4-fluorophenyl)-4-[4-(morpholin-4-yl)piperidin-1-yl]-3-(propan-2-yl)-1H-pyrazolo[3,4-b]pyridine-6-carboxylic acid] | 446% | 0.401 µM
9 | O=C(O)c1cc(OCC2CC(F)(F)C2)c2c(C3CCC3)nn(-c3ccccc3)c2n1 [compound 600, 3-cyclobutyl-4-[(3,3-difluorocyclobutyl)methoxy]-1-phenyl-1H-pyrazolo[3,4-b]pyridine-6-carboxylic acid] | 334.3% | 0.383 µM
10 | COCC1(F)CCN(c2cc(C(=O)O)nc3c2c(C(C)C)nn3-c2ccc(F)cc2)CC1 [compound 669, 4-[4-fluoro-4-(methoxymethyl)piperidin-1-yl]-1-(4-fluorophenyl)-3-(propan-2-yl)-1H-pyrazolo[3,4-b]pyridine-6-carboxylic acid] | 315.5% | 0.795 µM
11 | O=C(O)c1cc(N2CCN(C(=O)CN3CCOCC3)CC2)c2c(C3CCC3)nn(-c3ccccc3)c2n1 [compound 570, 3-cyclobutyl-4-{4-[(morpholin-4-yl)acetyl]piperazin-1-yl}-1-phenyl-1H-pyrazolo[3,4-b]pyridine-6-carboxylic acid] | 254% | 3.33 µM
12 | CCN(C1CCN(c2cc(C(=O)O)nc3c2c(C(C)C)nn3-c2ccc(F)cc2)CC1)C1COC1 [compound 750, 4-{4-[ethyl(oxetan-3-yl)amino]piperidin-1-yl}-1-(4-fluorophenyl)-3-(propan-2-yl)-1H-pyrazolo[3,4-b]pyridine-6-carboxylic acid] | 394.1% | 0.503 µM
13 | O=C(O)c1cc(N2CCN(CCOCCO)CC2)c2c(C3CCC3)nn(-c3ccccc3)c2n1 [compound 714, 3-cyclobutyl-4-{4-[2-(2-hydroxyethoxy)ethyl]piperazin-1-yl}-1-phenyl-1H-pyrazolo[3,4-b]pyridine-6-carboxylic acid] | 212.5% | 1.41 µM
14 | CC(C)c1nn(-c2ccc(F)cc2)c2nc(C(=O)O)cc(OCC3CCCO3)c12 (stereo not shown) [compound 609, 1-(4-fluorophenyl)-4-[(oxolan-2-yl)methoxy]-3-(propan-2-yl)-1H-pyrazolo[3,4-b]pyridine-6-carboxylic acid] | 336.4% | 1.04 µM
15 | O=C(O)c1cc(N2CCC(CN3CCOCC3)CC2)c2c(C3CCC3)nn(-c3ccc(F)cc3)c2n1 [compound 821, 3-cyclobutyl-1-(4-fluorophenyl)-4-{4-[(morpholin-4-yl)methyl]piperidin-1-yl}-1H-pyrazolo[3,4-b]pyridine-6-carboxylic acid] | 545.15% | 0.134 µM
16 | CC(C)(C)c1nn(-c2ccccc2)c2nc(C(=O)O)cc(-c3ccc(N4CCOCC4)cc3)c12 [compound 40, 3-tert-butyl-4-[4-(morpholin-4-yl)phenyl]-1-phenyl-1H-pyrazolo[3,4-b]pyridine-6-carboxylic acid] | 340.8% | 0.393 µM
17 | CCOCCN1CCC(N2CCN(c3cc(C(=O)O)nc4c3c(C(C)C)nn4-c3ccc(F)cc3)CC2)CC1 [compound 741, 4-{4-[1-(2-ethoxyethyl)piperidin-4-yl]piperazin-1-yl}-1-(4-fluorophenyl)-3-(propan-2-yl)-1H-pyrazolo[3,4-b]pyridine-6-carboxylic acid] | 303% | 0.669 µM
18 | COCCOCCOc1cc(C(=O)O)nc2c1c(C1CCC1)nn2-c1ccccc1 [compound 586, 3-cyclobutyl-4-[2-(2-methoxyethoxy)ethoxy]-1-phenyl-1H-pyrazolo[3,4-b]pyridine-6-carboxylic acid] | 322.2% | 2 µM
19 | COCCCN1CCN(c2cc(C(=O)O)nc3c2c(C2CCC2)nn3-c2ccccc2)CC1 [compound 704, 3-cyclobutyl-4-[4-(3-methoxypropyl)piperazin-1-yl]-1-phenyl-1H-pyrazolo[3,4-b]pyridine-6-carboxylic acid] | 344.1% | 0.409 µM
20 | CC(=O)N1CCC(COc2cc(C(=O)O)nc3c2c(C(C)C)nn3-c2ccc(F)cc2)CC1 [compound 662, 4-[(1-acetylpiperidin-4-yl)methoxy]-1-(4-fluorophenyl)-3-(propan-2-yl)-1H-pyrazolo[3,4-b]pyridine-6-carboxylic acid] | 310.6% | 2.3 µM
21 | O=C(O)c1cc(N2CCC(CN3CCOCC3)CC2)c2c(C3CCC3)nn(C3CCCCC3)c2n1 [compound 806, 3-cyclobutyl-1-cyclohexyl-4-{4-[(morpholin-4-yl)methyl]piperidin-1-yl}-1H-pyrazolo[3,4-b]pyridine-6-carboxylic acid] | 435.5% | 0.225 µM
22 | CC(C)c1nn(-c2ccc(F)cc2)c2nc(C(=O)O)cc(N3CC(N4CCC(N5CCOCC5)CC4)C3)c12 [compound 759, 1-(4-fluorophenyl)-4-{3-[4-(morpholin-4-yl)piperidin-1-yl]azetidin-1-yl}-3-(propan-2-yl)-1H-pyrazolo[3,4-b]pyridine-6-carboxylic acid] | 207% | 1.67 µM
23 | CC(C)c1nn(-c2ccc(F)cc2)c2nc(C(=O)O)cc(N3CCN(CCCN(C)C)CC3)c12 [compound 760, 4-{4-[3-(dimethylamino)propyl]piperazin-1-yl}-1-(4-fluorophenyl)-3-(propan-2-yl)-1H-pyrazolo[3,4-b]pyridine-6-carboxylic acid] | 131.6% | 5 µM
